Patent US11406719B2, “Dichromic fluorescent compounds” (Washington University, priority 2008, dated 2022)
Like-named read-outs stand apart in the source and are kept apart here. Marks after values point to notes of the source that are not given here.

Key:
[1] = Fluorescence lifetime by time correlated single photon counting (TCSPC); type: physicochemical; settings: for Lifetime at 700 nm (ns): excitation 650 nm, emission 700 nm
Description: Fluorescence lifetime (FLT) was measured using time correlated single photon counting (TCSPC) technique with excitation sources NanoLed® (HORIBA Jobin Yvon Inc.) at 700 nm and 773 nm and impulse repetition rate of 1 MHz at 90° to a R928P detector (Hamamatsu Photonics, Japan). The detector was set to either 750 nm (for Nanoled 700 nm) or for 820 nm (for Nanoled 773 nm) with a 20 nm bandpass. The electrical signal was amplified by TB-02 pulse amplifier (HORIBA Jobin Yvon Inc.) and the amplified signal was fed to the constant fraction discriminator CFD (Philips, Netherlands). The first detected photon represented the start signal by the time-to-amplitude converter (TAC) and the excitation pulse triggered the stop signal. The multi-channel analyzer (MCA) recorded repetitive start-stop signals from the TAC and generated a histogram of photons as a function of time-calibrated channels (6.878 ps/channel) until the peak signal reached 10,000 counts. The lifetime was recorded on a 50 ns scale. The instrument response function was obtained by using Rayleigh scatter of Ludox-40 (Sigma-Aldrich, St. Louis, Mo.) (0.03% in Milli-Q water) in a quartz cuvette at either 700 nm or 773 nm emission. DAS6 v6.1 decay analysis software (HORIBA Jobin Yvon Inc.) was used for lifetime calculations. The goodness of fit was judged by χ^2 values and Durbin-Watson parameters and visual observations of fitted line, residuals and autocorrelation function

[2] = DMSO; excitation 773 nm; emission 820 nm; from Berezin et al., 2007; cited from earlier work
[3] = Steady-state absorption and fluorescence properties (spectra, quantum yield, 700/800 nm emission); type: physicochemical; settings: for fluorescence quantum yield: relative to ICG
Description: The polymethine dyes and their derivatives were dissolved in […] of DMSO as stock solutions. To prevent inner effect in the fluorescent measurements, aliquots […] were diluted with the solvent of interest until the absorbance at the excitation wavelength was 0.15. UV-Vis spectra were obtained on Beckman Coulter DU 640 UV-Vis spectrometer (Beckman Coulter, Inc., Fullerton, Calif.). Emission spectra were recorded on a Fluorolog-3 spectrofluorometer (HORIBA Jobin Yvon Inc., Edison, N.J.).
Fluorescent spectra were recorded by using 620 nm and 720 nm excitation wavelengths. Fluorescent quantum yield was measured at 720 nm with slits width of 5 nm for both excitation and emission. The fluorescence quantum yield of ICG in DMSO (Ψ=0.12) was used as a reference standard. All measurements were conducted at room temperature. Excitation scans were performed in the range of 500-720 nm with monitoring at 735 nm fluorescence intensity, and 600-815 nm with monitoring at 830 nm. Excitation scans were corrected by lamp intensity using the equation F=S/R.
The ratios of the 700 nm and 800 nm emission peaks were examined in different environments and simulated dilute conditions (e.g., binding to albumin). For this, the fluorescence behavior of compound 3 was determined in different solvents (i.e., methanol, water, and DMSO), pH levels (i.e., 2.5 and 10), and in the presence of albumin (which binds the dyes in its drug binding pocket). The spectral analysis was conducted as described above in Example 2. Spectra at pH 2.5 and 10.0 were obtained by titrating 20% DMSO/water solution with diluted aqueous HCl and NaOH.

[4] = cited from earlier work
[5] = In vivo dichromic fluorescence imaging of mouse ears; design: species or system nude mouse; settings: 2 nmol intravenously
Source text: To assess the retention of dichromic fluorescence in vivo, 2 nmol of symmetrical ICG (compound 2) and nonsymmetrical cypate-S (compound 3) were each injected intravenously in a nude mouse. Mouse ears were imaged with a Li-Cor Odyssey system at two excitation (680 nm and 780 nm) and emission (700 and 800 nm) channels. […] Thus, the dual fluorescence contrast mechanism is tenable in vivo.

A549 cells = assay: Two-channel imaging of fluorescence enhancement of A549 cells; type: cell-based, human; settings: 1 μM
Description: It was hypothesized that since cypate diserine could be phosphorylated in cells, it is possible that the initial phosphorylation of one serine (as indicated by an increase in the 700 nm channel) could be followed by phosphorylation of the second serine. […] To test this notion, A549 cells were incubated with of 1 μM of compound 6.

casein kinase II = assay: Kinase-Glo Luminescent Kinase Assay; type: cell-based; settings: A549 cells
Description: The following example was designed to further explore the use of cypate diserine (6) to monitor the activity of endogenous kinases. A549 cells (which express casein kinase II) were incubated with a standard casein kinase II peptide substrate or compound 6 (which is not specific for casein kinase II). Kinase activity was measured with the Kinase-Glo Luminescent Kinase Assay Platform (Promega Corp., Madison, Wis.) per the manufacturer's instructions. This assay measures free ATP in the reaction mixture. As phosphorylation increases, the levels of ATP decrease, and consequently, luminescence is inversely proportional to kinase activity.

caspase-3 [6] = target: T1, caspase-3 (Homo sapiens, UniProt P42574); design: purchased CalBiochem; settings: read-out: KM of the standard; cited from earlier work
T1 sequence (P42574 29-175 limits assumed): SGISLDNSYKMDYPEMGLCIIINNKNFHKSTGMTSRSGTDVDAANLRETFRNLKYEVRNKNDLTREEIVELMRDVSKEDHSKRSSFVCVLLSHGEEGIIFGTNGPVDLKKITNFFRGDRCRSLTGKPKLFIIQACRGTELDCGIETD
T1 sequence (P42574 176-277 limits assumed): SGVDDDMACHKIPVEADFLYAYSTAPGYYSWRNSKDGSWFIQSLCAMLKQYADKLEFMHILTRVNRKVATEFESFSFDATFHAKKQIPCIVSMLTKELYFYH

caspase-3 [7] = target: T1, caspase-3; assay: In vivo imaging of caspase-3 activity in mouse ears; design: species or system nude mouse; settings: 2 nmol intravenously; caspase-3-injected ear relative to saline-injected ear
Description: To assess the NIR optical imaging of caspase-3 activity, 2 nmol of the pre-quenched (FRET) cypate-DEVD (SEQ ID NO:4) probe was injected intravenously in a nude mouse, followed by intradermal injection of caspase-3 solution (right pinna) or saline (left pinna). This approach provides positive and negative controls in one set of experiments. Mouse ears were imaged with Li-Cor Odyssey single-channel (805 nm) NIR imaging system (Li-Cor Biosciences, Lincoln, Neb.). Images were captured before treatment, after injection of a probe and after intradermal injection of caspase-3 in the ear.

caspase-3 [8] = target: T1, caspase-3; assay: Enzyme kinetics of NIR caspase-3 probe; type: biochemical; design: purchased CalBiochem; settings: non-linear fit; 37° C.
Description: To examine the kinetics, a caspase-3 substrate was prepared using the standard FRET method where the tetrapeptide Asp-Glu-Val-Asp (DEVD—SEQ ID NO:4) was flanked by two cypate dyes (cypate-DEVD (SEQ ID NO:4) probe). Enzyme assays were performed with a fluorometer by using commercially available recombinant caspase-3 (CalBiochem). An aliquot of the cypate-DEVD (SEQ ID NO:4) probe (substrate concentrations ranged from 70 nM to 100 μM) was dissolved in DMSO and added to a buffer comprising 10 mM PIPES, pH 7.4, 2 mM EDTA, 0.1% CHAPS, and 5 mM DTT. Five units of the enzyme were added, and the assay was performed at 37° C. A control experiment under the same conditions but with no enzyme was conducted at the same time. The apparent Km for the cypate-DEVD (SEQ ID NO:4) probe for caspase-3 was calculated with the Cheng-Prusoff equation: […], where [S] is the concentration of substrate and Ki is the published inhibitory constant of DEVD (SEQ ID NO:4)-CHO. To generate EC50 values, initial rates were determined from the linear portion of substrate hydrolysis and were plotted against log-inhibitor concentration (DEVD (SEQ ID NO:4)-CHO). The apparent kcat values were calculated using the equation kcat=V(Km+[S])/[Et][S], where [S] is the concentration of substrate, [E] is the concentration of enzyme, and Vis the initial rate of cleavage. […]

## CC1(C)C(/C=C/C=C/C=C/C=C2/N(CCC(=O)O)c3ccc4ccccc4c3C2(C)C)=[N+](CCC(=O)[O-])c2ccc3ccccc3c21 [Compound 1, cypate, reference compound]
[1]; DMSO
  Lifetime at 700 nm (ns): Weak signal
[1]; in DMSO
  fluorescence lifetime at 800 nm: 0.86 ns
[2]
  Lifetime at 800 nm (ns): 0.87^c ns
[3]
  contribution of the 700 nm emission in the overall fluorescence spectra: 18%

## CC1(C)C(/C=C/C=C/C=C/C=C2/N(CCCCS(=O)(=O)O)c3ccc4ccccc4c3C2(C)C)=[N+](CCCCS(=O)(=O)[O-])c2ccc3ccccc3c21 [Compound 2, indocyanine green, reference compound]
[1]; DMSO
  Lifetime at 700 nm (ns): 1.50^d ns
[2]
  Lifetime at 800 nm (ns): 0.97^c ns
[4]; in DMSO
  fluorescence quantum yield (reference standard): 0.12
[4]; in methanol
  fluorescence quantum yield (reference): 0.090
[5]
  visibility of blood vessels in the 700 and 800 nm channels: showed the blood vessels only at the 800 nm channel
[3]
  contribution of the 700 nm emission in the overall fluorescence spectra: 24%

## CC1(C)C(/C=C/C=C/C=C/C=C2\N(CCC(=O)NC(CO)C(=O)O)c3ccc4ccccc4c3C2(C)C)=[N+](CCC(=O)NC(CO)C(=O)O)c2ccc3ccccc3c21 (stereo not drawn) [Compound 6, di-serine cypate]
A549 cells; 5 and 15 minutes
  fluorescence in the 700 nm and 800 nm emission channels: early fluorescence increase in the 700 nm emission channel
A549 cells; 30 and 45 minutes
  fluorescence in the 700 nm and 800 nm emission channels: fluorescence enhancement in both channels
Casein kinase II
  luminescence (inversely proportional to kinase activity): concentration-dependent decreases in luminescence
[3]; methanol
  molar absorption coefficient: about 220,000 M^−1 cm^−1
  ratio of the 700/800 nm emission peaks: 0.36
  fluorescence quantum yield: 0.059

## CC1(C)C(/C=C/C=C/C=C/C=C2\N(CCC(=O)NC(COP(=O)(O)O)C(=O)O)c3ccc4ccccc4c3C2(C)C)=[N+](CCC(=O)NC(CO)C(=O)O)c2ccc3ccccc3c21 (stereo not drawn) [Compound 7, monophosphoserine/serine cypate derivative]
[3]; methanol
  increase of the 700/800 nm ratio relative to symmetrical compound 6: 7 fold
  molar absorption coefficient: about 220,000 M^−1 cm^−1
  ratio of the 700/800 nm emission peaks: 2.5
  fluorescence quantum yield: 0.057

## Ac-DEVD-pNA [Ac-DEVD (SEQ ID NO:4)-pNA]
caspase-3 [6]
  Km: 11 µM

## cypate-DEVD (SEQ ID NO:4) probe: caspase-3 FRET substrate: tetrapeptide Asp-Glu-Val-Asp flanked by two cypate dyes
caspase-3 [7]
  magnitude and area of increase of fluorescence intensity (805 nm): significantly greater in the caspase-3-injected ear
caspase-3 [8]
  Km: 15 ± 3 µM
  kcat: 1.02 ± 0.06 s⁻¹

## cypate-NH2 [Compound 4]
[1]; DMSO
  Lifetime at 700 nm (ns): 1.40 ns
[1]; DMSO, excitation 773 nm, emission 820 nm
  Lifetime at 800 nm (ns): 0.90 ns
[3]
  contribution of the 700 nm emission in the overall fluorescence spectra: 82%
